What was measured:
Assay type in all cases: in vivo
[1] = test system: field corn (Zea mays L., var. Dekalb 535, CORN); assay: Greenhouse herbicide screen, pre-emerge application, crop damage rating; conditions: PRE emergent, 14 days after application, rating scale 0-100
Source text: (§1) A standard greenhouse herbicide activity screening system was used to evaluate the herbicidal efficacy and crop safety of these test compounds. Seven broadleaf weed species including redroot pigweed (Amaranthus retrofiexus, AMARE), velvetleaf (Abutilon theophrasti, ABUTH), sicklepod (Cassia obtusifolia, CASOB), ivyleaf morningglory (Ipomoea hederacea, IPOHE), lambsquarters (Chenopodium album, CHEAL), common ragweed (Ambrosia artemisiifolia L., AMBEL), and cocklebur (Xanthium strumarium, XANST) were used as test species. Four grass weed species including green foxtail (Setaria viridis, SETVI), barnyardgrass (Echinochloa crus-galli, ECHCG), johnsongrass (Sorghum halepense, SORHA), and large crabgrass (Digitaria sanguinalis, DIGSA) were also used. In addition, four crop species, field corn (Zea mays L., var. Dekalb 535, CORN), soybean (Glycine max L., var. Pella 86, SOY), upland rice (Oryza sp., var.Cocodrie, RICE) and wheat (Triticum aestivum L.) were included.
(§2) All plants were grown in 10 cm square plastic pots which were filled with a sandy loam soil mix. For pre-emerge tests, seeds were planted one day prior to application of the test compounds. For post-emerge tests, seeds were planted 8-21 days prior to the test to allow emergence and good foliage development prior to application of the test substances. At the time of the post-emerge application, plants of all species were usually at the 2-3 leaf stage of development.
(§3) All test compounds were dissolved in acetone and applied to the test units in a volume of 187 l/ha. Test materials were applied at rates ranging from 15 g ai/ha to 1000 g ai/ha using a track sprayer equipped with a TJ8001E even flow flat fan spray nozzle. Plants were arranged on a shelf so that the top of the canopy (post-emerge) or top of the soil surface (pre-emerge) was 40-45 cm below the nozzle. Pressurized air was used to force the test solution through the nozzle as it was mechanically advanced (via electrically driven chain drive) over the top of all test plants/pots. This application simulates a typical commercial field herbicide application.
(§4) Pre-emergence tests were top watered immediately after treatment to incorporate the test materials, then routinely top-watered for normal growth. Post-emerge test units were always bottom-watered.
(§5) At 14 days after application of the test materials, phytotoxicity ratings were recorded. A rating scale of 0-100 was used as previously described in Research Methods in Weed Science, 2nd edition, B. Truelove, Ed., Southern Weed Science Society, Auburn University, Auburn, Ala., 1977. Briefly, “0” corresponds to no damage and “100” corresponds to complete death of all plants in the test unit. This scale was used both to determine efficacy against weed species and damage to crop species. Herbicide activity data for various compounds of this invention, which are shown by compound No. in Tables 1-12, are shown in Tables 13 and 14.

[2] = test system: upland rice (Oryza sp., var.Cocodrie, RICE); assay: as above; conditions: PRE emergent, 14 days after application, rating scale 0-100
Source text: as §1, §2, §3, §4, §5

[3] = test system: barnyardgrass (Echinochloa crus-galli, ECHCG); assay: Greenhouse herbicide screen, post-emerge application, phytotoxicity rating; conditions: POST emergent, 14 days after application, scale 0-100
Source text: as §1, §2, §3, §4, §5

[4] = test system: lambsquarters (Chenopodium album, CHEAL); assay: as above; conditions: POST emergent, 14 days after application, scale 0-100
Source text: as §1, §2, §3, §4, §5

[5] = test system: large crabgrass (Digitaria sanguinalis, DIGSA); assay: as above; conditions: POST emergent, 14 days after application, scale 0-100
Source text: as §1, §2, §3, §4, §5

[6] = test system: ivyleaf morningglory (Ipomoea hederacea, IPOHE); assay: as above; conditions: POST emergent, 14 days after application, scale 0-100
Source text: as §1, §2, §3, §4, §5

[7] = test system: redroot pigweed (Amaranthus retrofiexus, AMARE); assay: as above; conditions: POST emergent, 14 days after application
Source text: as §1, §2, §3, §4, §5

[8] = test system: green foxtail (Setaria viridis, SETVI); assay: as above; conditions: POST emergent, 14 days after application, scale 0-100
Source text: as §1, §2, §3, §4, §5

[9] = test system: johnsongrass (Sorghum halepense, SORHA); assay: as above; conditions: POST emergent, 14 days after application, scale 0-100
Source text: as §1, §2, §3, §4, §5

[10] = test system: sicklepod (Cassia obtusifolia, CASOB); assay: as above; conditions: POST emergent, 14 days after application, scale 0-100
Source text: as §1, §2, §3, §4, §5

[11] = test system: velvetleaf (Abutilon theophrasti, ABUTH); assay: as above; conditions: POST emergent, 14 days after application, scale 0-100
Source text: as §1, §2, §3, §4, §5

[12] = test system: common ragweed (Ambrosia artemisiifolia L., AMBEL); assay: as above; conditions: POST emergent, 14 days after application, scale 0-100
Source text: as §1, §2, §3, §4, §5

[13] = test system: cocklebur (Xanthium strumarium, XANST); assay: as above; conditions: POST emergent, 14 days after application, scale 0-100
Source text: as §1, §2, §3, §4, §5

[14] = test system: barnyardgrass (Echinochloa crus-galli, ECHCG); assay: Greenhouse herbicide screen, pre-emerge application, phytotoxicity rating; conditions: PRE emergent, 14 days after application, rating scale 0-100
Source text: as §1, §2, §3, §4, §5

[15] = test system: lambsquarters (Chenopodium album, CHEAL); assay: as above; conditions: PRE emergent, 14 days after application, rating scale 0-100
Source text: as §1, §2, §3, §4, §5

[16] = test system: large crabgrass (Digitaria sanguinalis, DIGSA); assay: as above; conditions: PRE emergent, 14 days after application, rating scale 0-100
Source text: as §1, §2, §3, §4, §5

[17] = test system: ivyleaf morningglory (Ipomoea hederacea, IPOHE); assay: as above; conditions: PRE emergent, 14 days after application, rating scale 0-100
Source text: as §1, §2, §3, §4, §5

[18] = test system: redroot pigweed (Amaranthus retrofiexus, AMARE); assay: as above; conditions: PRE emergent, 14 days after application, rating scale 0-100
Source text: as §1, §2, §3, §4, §5

[19] = test system: green foxtail (Setaria viridis, SETVI); assay: as above; conditions: PRE emergent, 14 days after application, rating scale 0-100
Source text: as §1, §2, §3, §4, §5

[20] = test system: johnsongrass (Sorghum halepense, SORHA); assay: as above; conditions: PRE emergent, 14 days after application, rating scale 0-100
Source text: as §1, §2, §3, §4, §5

[21] = test system: sicklepod (Cassia obtusifolia, CASOB); assay: as above; conditions: PRE emergent, 14 days after application, rating scale 0-100
Source text: as §1, §2, §3, §4, §5

[22] = test system: velvetleaf (Abutilon theophrasti, ABUTH); assay: as above; conditions: PRE emergent, 14 days after application, rating scale 0-100
Source text: as §1, §2, §3, §4, §5

[23] = test system: common ragweed (Ambrosia artemisiifolia L., AMBEL); assay: as above; conditions: PRE emergent, 14 days after application, rating scale 0-100
Source text: as §1, §2, §3, §4, §5

[24] = test system: cocklebur (Xanthium strumarium, XANST); assay: as above; conditions: PRE emergent, 14 days after application, rating scale 0-100
Source text: as §1, §2, §3, §4, §5

[25] = test system: field corn (Zea mays L., var. Dekalb 535, CORN); assay: Greenhouse herbicide screen, post-emerge application, crop damage rating; conditions: POST emergent, 14 days after application, scale 0-100
Source text: as §1, §2, §3, §4, §5

[26] = test system: upland rice (Oryza sp., var.Cocodrie, RICE); assay: as above; conditions: POST emergent, 14 days after application, scale 0-100
Source text: as §1, §2, §3, §4, §5

CN(NC(=O)c1cc(-n2c(=O)cc(C(F)(F)F)n(C)c2=O)c(F)cc1Cl)c1ccccc1 [Compound 1-9]
crop damage rating CORN ([1]; 63 g ai/ha): 10 | crop damage rating CORN ([1]; 250 g ai/ha): 75 | crop damage rating RICE ([2]; 63 g ai/ha): 0 | crop damage rating RICE ([2]; 250 g ai/ha): 45 | phytotoxicity rating ECHCO ([3]; 63 g ai/ha): 98 | phytotoxicity rating ECHCO ([3]; 250 g ai/ha): 100 | phytotoxicity rating CHEAL ([4]; 63 g ai/ha): 100 | phytotoxicity rating CHEAL ([4]; 250 g ai/ha): 100 | phytotoxicity rating DIGSA ([5]; 63 g ai/ha): 70 | phytotoxicity rating DIGSA ([5]; 250 g ai/ha): 95 | phytotoxicity rating IPOHE ([6]; 63 g ai/ha): 100 | phytotoxicity rating IPOHE ([6]; 250 g ai/ha): 100 | phytotoxicity rating AMARE ([7]; 63 g ai/ha, scale 0-100 (0 no damage, 100 complete death)): 100 | phytotoxicity rating AMARE ([7]; 250 g ai/ha, scale 0-100): 100 | phytotoxicity rating SETVI ([8]; 63 g ai/ha): 60 | phytotoxicity rating SETVI ([8]; 250 g ai/ha): 95 | phytotoxicity rating SORHA ([9]; 63 g ai/ha): 75 | phytotoxicity rating SORHA ([9]; 250 g ai/ha): 99 | phytotoxicity rating CASOB ([10]; 63 g ai/ha): 80 | phytotoxicity rating CASOB ([10]; 250 g ai/ha): 95 | phytotoxicity rating ABUTH ([11]; 63 g ai/ha): 100 | phytotoxicity rating ABUTH ([11]; 250 g ai/ha): 100 | phytotoxicity rating AMBEL ([12]; 63 g ai/ha): 99 | phytotoxicity rating AMBEL ([12]; 250 g ai/ha): 100 | phytotoxicity rating XANST ([13]; 63 g ai/ha): 100 | phytotoxicity rating XANST ([13]; 250 g ai/ha): 100 | phytotoxicity rating ECHCG ([14]; 63 g ai/ha): 40 | phytotoxicity rating ECHCG ([14]; 250 g ai/ha): 70 | phytotoxicity rating CHEAL ([15]; 63 g ai/ha): 99 | phytotoxicity rating CHEAL ([15]; 250 g ai/ha): 100 | phytotoxicity rating DIGSA ([16]; 63 g ai/ha): 50 | phytotoxicity rating DIGSA ([16]; 250 g ai/ha): 70 | phytotoxicity rating IPOHE ([17]; 63 g ai/ha): 60 | phytotoxicity rating IPOHE ([17]; 250 g ai/ha): 100 | phytotoxicity rating AMARE ([18]; 63 g ai/ha): 100 | phytotoxicity rating AMARE ([18]; 250 g ai/ha): 100 | phytotoxicity rating SETVI ([19]; 63 g ai/ha): 40 | phytotoxicity rating SETVI ([19]; 250 g ai/ha): 80 | phytotoxicity rating SORHA ([20]; 63 g ai/ha): 60 | phytotoxicity rating SORHA ([20]; 250 g ai/ha): 99 | phytotoxicity rating CASOB ([21]; 63 g ai/ha): 30 | phytotoxicity rating CASOB ([21]; 250 g ai/ha): 90 | phytotoxicity rating ABUTH ([22]; 63 g ai/ha): 95 | phytotoxicity rating ABUTH ([22]; 250 g ai/ha): 100 | phytotoxicity rating AMBEL ([23]; 63 g ai/ha): 50 | phytotoxicity rating AMBEL ([23]; 250 g ai/ha): 99 | phytotoxicity rating XANST ([24]; 63 g ai/ha): 20 | phytotoxicity rating XANST ([24]; 250 g ai/ha): 70 | crop damage rating CORN ([25]; 63 g ai/ha): 75 | crop damage rating CORN ([25]; 250 g ai/ha): 100 | crop damage rating RICE ([26]; 63 g ai/ha): 45 | crop damage rating RICE ([26]; 250 g ai/ha): 50
